Reference: patent US20250115620A1, “BRIDGED TRICYCLIC CARBAMOYLPYRIDONE COMPOUNDS AND USES THEREOF” (Gilead Sciences, Inc., priority 2022, published 2025)
Like-named read-outs stand apart in the source and are kept apart here.

How the values were obtained:
in vitro = conditions: human, uninfected MT-4 cells
pLAI reporter virus = test: microbe, parasite or virus in culture; format: cell-based, HIV; conditions: Human immunodeficiency virus 1, MT4, 72 h
HIV-1 (IIIB) = test: microbe, parasite or virus in culture; format: cell-based; conditions: Human immunodeficiency virus 1, IIIB, MT4, 120 h, read-out: MT4 EC50
[1] = HIV-1 (IIIB) in MT-4 cells, 5 days incubation, Cell Titer Glo

SMILES	CC50 at 5 days (in vitro) [nM]	EC50 (pLAI reporter virus; read-out: RLUC 50% HS EC50) [nM]	EC50 (pLAI reporter virus; read-out: RLUC CCM EC50) [nM]	EC50 (HIV-1 (IIIB); [1]) [nM]	EC50 (HIV-1 (IIIB)) [nM]
C[C@H]1CC[C@]2(CC(=O)N(C)O2)[C@H]2CN1C(=O)c1c(O)c(=O)c(C(=O)NCc3c(F)cc(F)cc3F)cn12 [Example 108, (3′S,5S,7′R)-12′-hydroxy-2,3′-dimethyl-1′,3,11′-trioxo-N-(2,4,6-trifluorobenzyl)-1′,4′,5′,11′-tetrahydro-3′H,7′H-spiro[isoxazolidine-5,6′-[2,7]methanopyrido[1,2-a][1,4]diazonine]-10′-carboxamide]	≥ 50000	7.8	0.5	3.5	–
C[C@H]1CC[C@]2(CC(=O)N(Cc3ccc(Cl)cc3)O2)[C@H]2CN1C(=O)c1c(O)c(=O)c(C(=O)NCc3c(F)cc(F)cc3F)cn12 [Example 109, (3′S,5S,7′R)-2-(4-chlorobenzyl)-12′-hydroxy-3′-methyl-1′,3,11′-trioxo-N-(2,4,6-trifluorobenzyl)-1′,4′,5′,11′-tetrahydro-3′H,7′H-spiro[isoxazolidine-5,6′-[2,7]methanopyrido[1,2-a][1,4]diazonine]-10′-carboxamide]	2890	3.9	0.3	1.6	–
C[C@H]1CC[C@]2(CC(=O)N(Cc3ccc(F)cc3F)O2)[C@H]2CN1C(=O)c1c(O)c(=O)c(C(=O)NCc3c(F)cc(F)cc3F)cn12 [Example 110, (3′S,5S,7′R)-2-(2,4-difluorobenzyl)-12′-hydroxy-3′-methyl-1′,3,11′-trioxo-N-(2,4,6-trifluorobenzyl)-1′,4′,5′,11′-tetrahydro-3′H,7′H-spiro[isoxazolidine-5,6′-[2,7]methanopyrido[1,2-a][1,4]diazonine]-10′-carboxamide]	12000	2.9	0.3	1.2	–
C[C@H]1CC[C@]2(CC(=O)N(Cc3cccc(C(F)(F)F)c3)O2)[C@H]2CN1C(=O)c1c(O)c(=O)c(C(=O)NCc3c(F)cc(F)cc3F)cn12 [Example 111, (3′S,5S,7′R)-12′-hydroxy-3′-methyl-1′,3,11′-trioxo-N-(2,4,6-trifluorobenzyl)-2-(3-(trifluoromethyl)benzyl)-1′,4′,5′,11′-tetrahydro-3′H,7′H-spiro[isoxazolidine-5,6′-[2,7]methanopyrido[1,2-a][1,4]diazonine]-10′-carboxamide]	7230	1.9	0.4	2.3	–
C[C@H]1CC[C@]2(CC(=O)N(Cc3ccc4ncsc4c3)O2)[C@H]2CN1C(=O)c1c(O)c(=O)c(C(=O)NCc3c(F)cc(F)cc3F)cn12 [Example 112, (3′S,5S,7′R)-2-(benzo[d]thiazol-6-ylmethyl)-12′-hydroxy-3′-methyl-1′,3,11′-trioxo-N-(2,4,6-trifluorobenzyl)-1′,4′,5′,11′-tetrahydro-3′H,7′H-spiro[isoxazolidine-5,6′-[2,7]methanopyrido[1,2-a][1,4]diazonine]-10′-carboxamide]	≥ 50000	0.4	0.2	0.7	–
C[C@H]1CC[C@]2(CC(=O)N(Cc3ccc4scnc4c3)O2)[C@H]2CN1C(=O)c1c(O)c(=O)c(C(=O)NCc3c(F)cc(F)cc3F)cn12 [Example 113, (3′S,5S,7′R)-2-(benzo[d]thiazol-5-ylmethyl)-12′-hydroxy-3′-methyl-1′,3,11′-trioxo-N-(2,4,6-trifluorobenzyl)-1′,4′,5′,11′-tetrahydro-3′H,7′H-spiro[isoxazolidine-5,6′-[2,7]methanopyrido[1,2-a][1,4]diazonine]-10′-carboxamide]	≥ 50000	0.7	0.1	0.7	–
C[C@H]1CC[C@]2(CC(=O)N(Cc3cccc4[nH]cnc34)O2)[C@H]2CN1C(=O)c1c(O)c(=O)c(C(=O)NCc3c(F)cc(F)cc3F)cn12 [Example 114, (3′S,5S,7′R)-2-((1H-benzo[d]imidazol-4-yl)methyl)-12′-hydroxy-3′-methyl-1′,3,11′-trioxo-N-(2,4,6-trifluorobenzyl)-1′,4′,5′,11′-tetrahydro-3′H,7′H-spiro[isoxazolidine-5,6′-[2,7]methanopyrido[1,2-a][1,4]diazonine]-10′-carboxamide]	≥ 50000	5.9	1.9	6.1	–
C[C@H]1CC[C@]2(CC(=O)N(Cc3ccc(C#N)cc3)O2)[C@H]2CN1C(=O)c1c(O)c(=O)c(C(=O)NCc3c(F)cc(F)cc3F)cn12 [Example 118, (3′S,5S,7′R)-2-(4-cyanobenzyl)-12′-hydroxy-3′-methyl-1′,3,11′-trioxo-N-(2,4,6-trifluorobenzyl)-1′,4′,5′,11′-tetrahydro-3′H,7′H-spiro[isoxazolidine-5,6′-[2,7]methanopyrido[1,2-a][1,4]diazonine]-10′-carboxamide]	≥ 50000	0.4	0.4	2.6	–
COc1ccc(CN2O[C@@]3(CC[C@H](C)N4C[C@H]3n3cc(C(=O)NCc5c(F)cc(F)cc5F)c(=O)c(O)c3C4=O)CC2=O)cc1 [Example 119, (3′S,5S,7′R)-12′-hydroxy-2-(4-methoxybenzyl)-3′-methyl-1′,3,11′-trioxo-N-(2,4,6-trifluorobenzyl)-1′,4′,5′,11′-tetrahydro-3′H,7′H-spiro[isoxazolidine-5,6′-[2,7]methanopyrido[1,2-a][1,4]diazonine]-10′-carboxamide]	≥ 50000	2.3	0.5	1.5	–
C[C@H]1CC[C@]2(CCC(=O)N2)[C@H]2CN1C(=O)c1c(O)c(=O)c(C(=O)NCc3c(F)cc(F)cc3F)cn12 [Example 121, (2S,3′S,7′R)-12′-hydroxy-3′-methyl-1′,5,11′-trioxo-N-(2,4,6-trifluorobenzyl)-1′,4′,5′,11′-tetrahydro-3′H,7′H-spiro[pyrrolidine-2,6′-[2,7]methanopyrido[1,2-a][1,4]diazonine]-10′-carboxamide]	≥ 50000	19.9	16.9	86.5	–
C[C@H]1CC[C@]2(CCCN2)[C@H]2CN1C(=O)c1c(O)c(=O)c(C(=O)NCc3c(F)cc(F)cc3F)cn12 [Example 122, (2R,3′S,7′R)-12′-hydroxy-3′-methyl-1′,11′-dioxo-N-(2,4,6-trifluorobenzyl)-1′,4′,5′,11′-tetrahydro-3′H,7′H-spiro[pyrrolidine-2,6′-[2,7]methanopyrido[1,2-a][1,4]diazonine]-10′-carboxamide]	38000	7.6	0.9	–	6.4
C[C@H]1CC[C@@]2(CC(O)CO2)[C@H]2CN1C(=O)c1c(O)c(=O)c(C(=O)NCc3c(F)cc(F)cc3F)cn12 (stereo partly drawn) [Example 123, (2R,3′S,7′R)-4,12′-dihydroxy-3′-methyl-1′,11′-dioxo-N-(2,4,6-trifluorobenzyl)-1′,4,4′,5,5′,11′-hexahydro-3H,3′H,7′H-spiro[furan-2,6′-[2,7]methanopyrido[1,2-a][1,4]diazonine]-10′-carboxamide]	≥ 50000	1.4	2.1	8.4	–
CC1C[C@@]2(CC[C@H](C)N3C[C@H]2n2cc(C(=O)NCc4c(F)cc(F)cc4F)c(=O)c(O)c2C3=O)OCO1 (stereo partly drawn) [Example 124, (3′S,4R,7′R)-12′-hydroxy-3′,6-dimethyl-1′,11′-dioxo-N-(2,4,6-trifluorobenzyl)-1′,4′,5′,11′-tetrahydro-3′H,7′H-spiro[[1,3]dioxane-4,6′-[2,7]methanopyrido[1,2-a][1,4]diazonine]-10′-carboxamide]	29800	0.4	0.2	0.8	–
C[C@H]1CCC2(OCCO2)[C@H]2CN1C(=O)c1c(O)c(=O)c(C(=O)NCc3c(F)cc(F)cc3F)cn12 [Example 125, (3′S,7′R)-12′-hydroxy-3′-methyl-1′,11′-dioxo-N-(2,4,6-trifluorobenzyl)-1′,4′,5′,11′-tetrahydro-3′H,7′H-spiro[[1,3]dioxolane-2,6′-[2,7]methanopyrido[1,2-a][1,4]diazonine]-10′-carboxamide]	24200	30.2	0.2	0.7	–
C[C@H]1CO[C@]2(CC[C@H](C)N3C[C@H]2n2cc(C(=O)NCc4c(F)cc(F)cc4F)c(=O)c(O)c2C3=O)O1 [Example 127, (2R,3′S,4S,7′R)-12′-hydroxy-3′,4-dimethyl-1′,11′-dioxo-N-(2,4,6-trifluorobenzyl)-1′,4′,5′,11′-tetrahydro-3′H,7′H-spiro[[1,3]dioxolane-2,6′-[2,7]methanopyrido[1,2-a][1,4]diazonine]-10′-carboxamide]	49900	13.3	0.1	1.2	–
C[C@H]1CCC2(OCCCO2)[C@H]2CN1C(=O)c1c(O)c(=O)c(C(=O)NCc3c(F)cc(F)cc3F)cn12 [Example 128, (3′S,7′R)-12′-hydroxy-3′-methyl-1′,11′-dioxo-N-(2,4,6-trifluorobenzyl)-1′,4′,5′,11′-tetrahydro-3′H,7′H-spiro[[1,3]dioxane-2,6′-[2,7]methanopyrido[1,2-a][1,4]diazonine]-10′-carboxamide]	20500	18.4	0.2	1.1	–
C[C@H]1CCC2(OCCO2)[C@H]2CN1C(=O)c1c(O)c(=O)c(C(=O)NCc3ccc(F)cc3F)cn12 [Example 129, (3′S,7′R)—N-(2,4-difluorobenzyl)-12′-hydroxy-3′-methyl-1′,11′-dioxo-1′,4′,5′,11′-tetrahydro-3′H,7′H-spiro[[1,3]dioxolane-2,6′-[2,7]methanopyrido[1,2-a][1,4]diazonine]-10′-carboxamide]	27400	8	0.2	0.5	–
